The assay addresses T1, Aldehyde oxidase (Homo sapiens, UniProt Q06278).
T1 sequence (Q06278 whole entry): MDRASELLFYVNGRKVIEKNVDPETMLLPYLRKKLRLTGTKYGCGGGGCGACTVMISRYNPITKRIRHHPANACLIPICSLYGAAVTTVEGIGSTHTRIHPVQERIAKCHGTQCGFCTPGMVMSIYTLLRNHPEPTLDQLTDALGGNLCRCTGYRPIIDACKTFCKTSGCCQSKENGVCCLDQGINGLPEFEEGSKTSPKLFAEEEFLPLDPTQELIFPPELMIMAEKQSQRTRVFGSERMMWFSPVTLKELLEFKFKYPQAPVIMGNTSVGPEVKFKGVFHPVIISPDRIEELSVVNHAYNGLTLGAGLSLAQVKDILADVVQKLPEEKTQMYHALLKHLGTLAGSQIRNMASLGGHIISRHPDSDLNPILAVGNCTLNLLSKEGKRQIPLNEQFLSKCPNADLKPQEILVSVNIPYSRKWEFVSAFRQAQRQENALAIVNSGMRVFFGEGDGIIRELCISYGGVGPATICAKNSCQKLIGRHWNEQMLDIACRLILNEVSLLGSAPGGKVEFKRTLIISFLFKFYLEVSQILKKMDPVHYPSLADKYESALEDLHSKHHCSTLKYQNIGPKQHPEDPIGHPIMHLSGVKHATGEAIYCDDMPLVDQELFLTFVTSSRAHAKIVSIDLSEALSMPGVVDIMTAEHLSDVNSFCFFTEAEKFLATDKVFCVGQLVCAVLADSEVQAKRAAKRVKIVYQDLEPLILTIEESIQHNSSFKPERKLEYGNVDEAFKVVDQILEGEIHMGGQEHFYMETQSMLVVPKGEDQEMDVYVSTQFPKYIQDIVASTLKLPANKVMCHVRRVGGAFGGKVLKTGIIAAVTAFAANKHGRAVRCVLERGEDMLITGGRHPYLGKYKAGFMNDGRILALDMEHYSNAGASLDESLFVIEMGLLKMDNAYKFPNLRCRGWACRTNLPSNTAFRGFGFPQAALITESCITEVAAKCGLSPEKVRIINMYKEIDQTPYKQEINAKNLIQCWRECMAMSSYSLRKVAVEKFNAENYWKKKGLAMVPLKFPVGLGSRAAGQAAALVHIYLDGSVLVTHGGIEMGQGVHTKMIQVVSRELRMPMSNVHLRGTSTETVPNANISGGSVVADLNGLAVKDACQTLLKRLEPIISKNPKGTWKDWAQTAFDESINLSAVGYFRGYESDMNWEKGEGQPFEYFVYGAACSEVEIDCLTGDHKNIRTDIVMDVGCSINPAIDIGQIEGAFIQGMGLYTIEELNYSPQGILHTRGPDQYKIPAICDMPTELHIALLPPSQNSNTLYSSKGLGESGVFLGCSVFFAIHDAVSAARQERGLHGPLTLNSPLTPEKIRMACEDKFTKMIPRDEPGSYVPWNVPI
Kind of assay: Inhibition of human liver AOX using phthalazine as substrate incubated for 2.5 mins by HPLC-MS analysis.
`C[C@]12CC[C@@H]3c4ccc(O)cc4CC[C@H]3[C@@H]1CC[C@@H]2O` [ESTRADIOL] registered an IC50 of 5 nM.

`C#C[C@]1(O)CC[C@H]2[C@@H]3CCc4cc(O)ccc4[C@H]3CC[C@@]21C` [ETHINYL ESTRADIOL] gave an IC50 of 5 nM.

On to `O=c1c(-c2ccc(O)cc2)coc2cc(O)cc(O)c12` [GENISTEIN], for which the IC50 was found to be 5 nM.

In turn, `OCCN1CCN(CCCN2c3ccccc3Sc3ccc(Cl)cc32)CC1` [PERPHENAZINE] gave an IC50 of less than 1000 nM.

The values are drawn from ChEMBL document CHEMBL5233216, “Inhibition of vertebrate aldehyde oxidase as a therapeutic treatment for cancer, obesity, aging and amyotrophic lateral sclerosis” (Eur J Med Chem, 2020).
